This is an account of results in US7074789B2, “Kinase inhibitors” (Amgen Inc., priority 1999, dated 2006).

What all share (assay type): biochemical
One experiment addresses T1, Lck (Homo sapiens, UniProt P06239).
T1 construct: Kinases are expressed as either kinase domains or full length constructs; made in house
The experiment is described as follows: Kinase inhibition assay (33P transfer), Lck. The settings on record: read-out: Lck-1. Put shortly:
(§1)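 Recombinant kinase-domain or full-length fusion proteins (GST or His tag) served as enzyme. Substrate poly(Glu,Tyr) 4:1 or poly(Arg,Ser) 3:1 was bound to the plate; transferred 33P was read by liquid scintillation following acid washing.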

Another experiment has as its target T2, Lyn (Homo sapiens, UniProt P07948).
T2 construct: Kinases are expressed as either kinase domains or full length constructs; made in house
The experiment is described as follows: Kinase inhibition assay (33P transfer), Lyn. The settings on record: Table 6, Lyn-1 kinase inhibition class. Put shortly:
(§2)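 Steps: coat wells with poly(Glu,Tyr) 4:1 or poly(Arg,Ser) 3:1; add purified kinase, [33P]ATP and inhibitor; incubate; wash with 0.5% phosphoric acid; add liquid scintillant; count. IC50 corresponds to half-maximal reduction of bound 33P.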

A further experiment concerns the target T3, Src (Homo sapiens, UniProt P12931).
T3 construct: Kinases are expressed as either kinase domains or full length constructs; made in house
The experiment is described as follows: Kinase inhibition assay (33P transfer), Src. The settings on record: Table 6, Src-1 kinase inhibition class. Put shortly:
as §2

In a further experiment the target is T4, Fyn (Homo sapiens, UniProt P06241).
T4 construct: Kinases are expressed as either kinase domains or full length constructs; made in house
Kind of experiment: Kinase inhibition assay (33P transfer), Fyn. The conditions noted are these: read-out: Fyn-1. The method, boiled down:
as §2

The target in the next experiment is T5, Zap-70 (Homo sapiens, UniProt P43403).
T5 construct: Kinases are expressed as either kinase domains or full length constructs; made in house
T5 sequence (P43403 1-619): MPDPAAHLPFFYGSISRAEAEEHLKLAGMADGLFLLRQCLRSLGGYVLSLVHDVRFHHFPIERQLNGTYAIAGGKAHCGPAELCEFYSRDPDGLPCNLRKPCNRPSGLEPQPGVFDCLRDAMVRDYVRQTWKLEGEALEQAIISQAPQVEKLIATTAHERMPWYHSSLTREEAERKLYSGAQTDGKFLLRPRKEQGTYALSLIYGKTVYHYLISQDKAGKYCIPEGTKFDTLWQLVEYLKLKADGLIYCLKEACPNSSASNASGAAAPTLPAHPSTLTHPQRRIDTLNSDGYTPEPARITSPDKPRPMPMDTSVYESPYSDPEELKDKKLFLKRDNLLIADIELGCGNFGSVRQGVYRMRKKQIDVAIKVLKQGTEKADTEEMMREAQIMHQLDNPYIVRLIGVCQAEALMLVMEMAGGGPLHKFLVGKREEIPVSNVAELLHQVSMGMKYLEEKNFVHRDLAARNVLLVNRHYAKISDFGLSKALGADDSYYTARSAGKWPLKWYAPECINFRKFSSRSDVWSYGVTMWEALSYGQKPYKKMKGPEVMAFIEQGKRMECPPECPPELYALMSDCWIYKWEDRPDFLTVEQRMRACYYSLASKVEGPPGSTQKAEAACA
The experiment is described as follows: Kinase inhibition assay (33P transfer), Zap-70. The conditions noted are these: read-out: Zap-1. The method, boiled down: as §1

A further experiment has as its target T6, Itk (Homo sapiens, UniProt Q08881).
T6 construct: Kinases are expressed as either kinase domains or full length constructs; made in house
T6 sequence (Q08881 1-620): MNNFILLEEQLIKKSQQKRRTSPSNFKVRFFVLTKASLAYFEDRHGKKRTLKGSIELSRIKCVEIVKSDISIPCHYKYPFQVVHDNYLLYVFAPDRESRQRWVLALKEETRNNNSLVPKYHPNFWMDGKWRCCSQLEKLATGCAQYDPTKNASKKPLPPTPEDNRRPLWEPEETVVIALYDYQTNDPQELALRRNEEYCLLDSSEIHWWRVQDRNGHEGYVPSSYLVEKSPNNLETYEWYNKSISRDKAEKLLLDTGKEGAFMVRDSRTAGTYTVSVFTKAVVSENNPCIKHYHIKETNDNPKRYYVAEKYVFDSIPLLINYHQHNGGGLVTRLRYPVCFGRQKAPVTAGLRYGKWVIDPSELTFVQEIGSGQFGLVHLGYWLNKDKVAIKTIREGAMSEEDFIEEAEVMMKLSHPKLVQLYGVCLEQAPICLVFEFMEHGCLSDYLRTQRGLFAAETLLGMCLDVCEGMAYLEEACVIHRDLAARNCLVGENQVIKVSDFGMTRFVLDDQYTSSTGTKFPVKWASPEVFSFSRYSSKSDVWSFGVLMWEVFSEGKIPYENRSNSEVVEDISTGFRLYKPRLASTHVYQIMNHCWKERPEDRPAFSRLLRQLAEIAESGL
The experiment is described as follows: Kinase inhibition assay (33P transfer), Itk. The conditions noted are these: read-out: Itk-1. The method, boiled down: as §2

A further experiment concerns the target T7, EGFR (Homo sapiens, UniProt P00533).
T7 construct: Kinases are expressed as either kinase domains or full length constructs; made in house
Kind of experiment: Kinase inhibition assay (33P transfer), EGFR. The settings on record: Table 2, kinase inhibition class; read-out: EGFR-1. The method, boiled down: as §2

For another experiment, the target named is T8, ErbB2 (Homo sapiens, UniProt P04626).
T8 construct: Kinases are expressed as either kinase domains or full length constructs; made in house
The experiment is described as follows: Kinase inhibition assay (33P transfer), ErbB2. The settings on record: read-out: ErbB2-2. Put shortly: as §2

The next experiment concerns the target T9, Kdr (Homo sapiens, UniProt P35968).
T9 construct: Kinases are expressed as either kinase domains or full length constructs; made in house
Kind of experiment: Kinase inhibition assay (33P transfer), Kdr. The conditions noted are these: read-out: KDR-1. The method, boiled down:
as §1

The next experiment deals with T10, Flt-1 (Homo sapiens, UniProt P17948).
T10 construct: Kinases are expressed as either kinase domains or full length constructs; made in house
Kind of experiment: Kinase inhibition assay (33P transfer), Flt-1. The method, boiled down: as §2

The target of the next experiment is T11, Tek (Homo sapiens, UniProt Q02763).
T11 construct: Kinases are expressed as either kinase domains or full length constructs; made in house
Kind of experiment: Kinase inhibition assay (33P transfer), Tek. The settings on record: read-out: Tek-1. The method, boiled down: as §2

In a further experiment the target is T12, c-Met (Homo sapiens, UniProt P08581).
T12 construct: Kinases are expressed as either kinase domains or full length constructs; made in house
Kind of experiment: Kinase inhibition assay (33P transfer), c-Met. The conditions noted are these: Table 2, kinase inhibition class; read-out: Met-1. The method, boiled down:
as §2

In a further experiment the target is T13, AKT (Homo sapiens, UniProt Q9Y243).
T13 construct: Kinases are expressed as either kinase domains or full length constructs; made in house
Kind of experiment: Kinase inhibition assay (33P transfer), AKT. The conditions noted are these: Table 2, kinase inhibition class; read-out: AKT3-1. The method, boiled down:
as §1

In a further experiment the target is T14, IGFR-1 (Homo sapiens, UniProt P08069).
T14 construct: Kinases are expressed as either kinase domains or full length constructs; made in house
The experiment is described as follows: Kinase inhibition assay, IGFR-1 (Table 2). The conditions noted are these: Table 2, kinase inhibition class.

A further experiment concerns the target T15, PDGFRB (Homo sapiens, UniProt P09619).
T15 construct: Kinases are expressed as either kinase domains or full length constructs; made in house
The experiment is described as follows: Kinase inhibition assay (33P transfer), PDGFRB. The settings on record: read-out: PDGFRB-1.

The target of a further experiment is T16, Hck-1 (Homo sapiens, UniProt P08631).
T16 construct: Kinases are expressed as either kinase domains or full length constructs; made in house
Kind of experiment: Kinase inhibition assay (33P transfer), Hck. The settings on record: Table 6, Hck-1 kinase inhibition class.

Another experiment has as its target T17, ErbB4 (Homo sapiens, UniProt Q15303).
T17 construct: Kinases are expressed as either kinase domains or full length constructs; made in house
Kind of experiment: Kinase inhibition assay (33P transfer), ErbB4. The settings on record: read-out: ErbB4-1.

The target in a further experiment is T18, Ret-1 (Homo sapiens, UniProt P07949).
T18 construct: Kinases are expressed as either kinase domains or full length constructs; made in house
The experiment is described as follows: Kinase inhibition assay (33P transfer), Ret. The conditions noted are these: Table 6, Ret-1 kinase inhibition class.

The next experiment deals with T19, FGFR1 (Homo sapiens, UniProt P11362).
T19 construct: Kinases are expressed as either kinase domains or full length constructs; made in house
The experiment is described as follows: Kinase inhibition assay (33P transfer), FGFR1. The settings on record: read-out: FGFR1-1.

T18 sequence (P07949 29-1114): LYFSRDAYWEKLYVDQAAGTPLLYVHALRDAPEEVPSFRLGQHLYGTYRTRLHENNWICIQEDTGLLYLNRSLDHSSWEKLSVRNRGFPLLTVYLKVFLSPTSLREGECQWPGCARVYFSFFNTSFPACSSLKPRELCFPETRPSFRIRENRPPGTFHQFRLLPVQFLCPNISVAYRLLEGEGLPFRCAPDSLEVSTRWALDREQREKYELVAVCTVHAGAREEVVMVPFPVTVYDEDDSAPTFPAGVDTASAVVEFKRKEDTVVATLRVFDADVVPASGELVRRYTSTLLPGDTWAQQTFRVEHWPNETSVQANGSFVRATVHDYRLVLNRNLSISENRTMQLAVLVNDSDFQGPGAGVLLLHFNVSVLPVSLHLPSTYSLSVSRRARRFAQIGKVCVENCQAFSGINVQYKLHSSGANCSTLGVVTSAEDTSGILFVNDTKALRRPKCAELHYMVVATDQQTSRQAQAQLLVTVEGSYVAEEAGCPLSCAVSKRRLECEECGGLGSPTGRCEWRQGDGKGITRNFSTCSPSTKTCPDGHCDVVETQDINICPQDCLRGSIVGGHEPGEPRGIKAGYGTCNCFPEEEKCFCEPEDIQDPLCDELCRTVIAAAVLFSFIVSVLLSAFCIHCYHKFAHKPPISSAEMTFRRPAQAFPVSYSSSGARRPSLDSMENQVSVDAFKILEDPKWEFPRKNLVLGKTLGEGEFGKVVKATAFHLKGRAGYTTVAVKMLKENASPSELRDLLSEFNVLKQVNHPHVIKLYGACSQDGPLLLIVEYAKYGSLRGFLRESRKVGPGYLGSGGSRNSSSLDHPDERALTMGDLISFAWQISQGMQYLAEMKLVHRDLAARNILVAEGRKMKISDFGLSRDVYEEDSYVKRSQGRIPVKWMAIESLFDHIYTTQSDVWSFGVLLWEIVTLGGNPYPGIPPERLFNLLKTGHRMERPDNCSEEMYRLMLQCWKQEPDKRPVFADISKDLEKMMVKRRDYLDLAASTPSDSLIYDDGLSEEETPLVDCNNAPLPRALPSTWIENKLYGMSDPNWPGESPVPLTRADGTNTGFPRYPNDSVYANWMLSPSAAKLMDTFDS
T8 sequence (P04626 23-1255, species assumed): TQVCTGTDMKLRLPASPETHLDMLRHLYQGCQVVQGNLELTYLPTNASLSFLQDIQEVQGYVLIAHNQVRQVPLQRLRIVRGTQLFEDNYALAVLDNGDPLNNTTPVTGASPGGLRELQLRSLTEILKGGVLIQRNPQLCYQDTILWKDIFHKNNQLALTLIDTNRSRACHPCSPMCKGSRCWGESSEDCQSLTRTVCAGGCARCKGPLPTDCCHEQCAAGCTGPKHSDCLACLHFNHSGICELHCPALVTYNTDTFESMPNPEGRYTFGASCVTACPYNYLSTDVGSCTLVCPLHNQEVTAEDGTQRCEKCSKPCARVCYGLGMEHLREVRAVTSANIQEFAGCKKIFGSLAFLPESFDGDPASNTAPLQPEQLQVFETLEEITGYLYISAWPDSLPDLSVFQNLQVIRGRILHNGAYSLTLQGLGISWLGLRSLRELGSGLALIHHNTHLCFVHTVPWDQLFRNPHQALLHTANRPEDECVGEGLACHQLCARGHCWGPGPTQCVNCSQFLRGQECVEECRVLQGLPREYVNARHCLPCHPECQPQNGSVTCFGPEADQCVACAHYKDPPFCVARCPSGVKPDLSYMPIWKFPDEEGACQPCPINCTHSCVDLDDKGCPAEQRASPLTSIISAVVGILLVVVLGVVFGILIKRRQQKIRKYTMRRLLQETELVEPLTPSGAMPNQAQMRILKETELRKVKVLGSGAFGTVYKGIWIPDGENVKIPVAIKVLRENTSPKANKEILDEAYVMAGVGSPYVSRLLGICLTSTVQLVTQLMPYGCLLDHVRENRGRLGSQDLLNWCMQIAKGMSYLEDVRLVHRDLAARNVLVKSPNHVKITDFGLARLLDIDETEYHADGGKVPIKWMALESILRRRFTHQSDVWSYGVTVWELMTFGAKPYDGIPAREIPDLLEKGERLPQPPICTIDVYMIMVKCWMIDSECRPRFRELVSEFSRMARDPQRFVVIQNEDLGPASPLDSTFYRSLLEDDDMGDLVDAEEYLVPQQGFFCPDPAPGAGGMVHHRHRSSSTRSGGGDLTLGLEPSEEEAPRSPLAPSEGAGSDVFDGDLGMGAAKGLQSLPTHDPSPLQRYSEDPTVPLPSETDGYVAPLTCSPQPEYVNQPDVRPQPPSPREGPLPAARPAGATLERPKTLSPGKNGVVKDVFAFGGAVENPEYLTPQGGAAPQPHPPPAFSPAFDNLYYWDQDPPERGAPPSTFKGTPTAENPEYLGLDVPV
T15 sequence (P09619 33-1106, species assumed): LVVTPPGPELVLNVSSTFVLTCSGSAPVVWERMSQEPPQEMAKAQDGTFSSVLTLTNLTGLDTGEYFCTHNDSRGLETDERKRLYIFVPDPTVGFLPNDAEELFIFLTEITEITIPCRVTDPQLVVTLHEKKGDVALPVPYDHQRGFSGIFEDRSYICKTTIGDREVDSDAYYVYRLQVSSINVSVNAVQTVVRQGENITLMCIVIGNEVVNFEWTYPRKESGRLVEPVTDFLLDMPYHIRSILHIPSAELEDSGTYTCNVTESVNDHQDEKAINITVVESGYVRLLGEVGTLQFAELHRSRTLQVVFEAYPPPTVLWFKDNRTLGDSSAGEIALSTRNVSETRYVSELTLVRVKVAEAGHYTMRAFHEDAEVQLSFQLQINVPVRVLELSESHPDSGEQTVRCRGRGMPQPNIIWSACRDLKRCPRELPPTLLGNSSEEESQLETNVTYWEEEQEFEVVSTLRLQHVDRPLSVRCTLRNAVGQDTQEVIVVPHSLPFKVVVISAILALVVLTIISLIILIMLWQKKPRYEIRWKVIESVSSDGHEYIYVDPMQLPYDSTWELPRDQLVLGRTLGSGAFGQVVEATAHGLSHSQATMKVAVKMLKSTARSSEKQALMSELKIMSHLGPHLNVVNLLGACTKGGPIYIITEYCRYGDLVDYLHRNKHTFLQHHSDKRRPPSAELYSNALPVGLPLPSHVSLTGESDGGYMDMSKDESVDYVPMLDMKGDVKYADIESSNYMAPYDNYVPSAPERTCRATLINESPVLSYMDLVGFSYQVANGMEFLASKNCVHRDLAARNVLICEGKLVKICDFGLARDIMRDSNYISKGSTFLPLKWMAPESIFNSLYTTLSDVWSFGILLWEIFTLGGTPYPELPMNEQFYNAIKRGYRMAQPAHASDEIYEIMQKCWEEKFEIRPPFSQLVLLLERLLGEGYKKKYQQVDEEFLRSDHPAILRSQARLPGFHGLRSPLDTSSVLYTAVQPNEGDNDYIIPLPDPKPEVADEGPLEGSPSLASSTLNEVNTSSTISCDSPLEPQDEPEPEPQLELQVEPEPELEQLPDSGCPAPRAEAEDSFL
T9 sequence (P35968 20-1356, species assumed): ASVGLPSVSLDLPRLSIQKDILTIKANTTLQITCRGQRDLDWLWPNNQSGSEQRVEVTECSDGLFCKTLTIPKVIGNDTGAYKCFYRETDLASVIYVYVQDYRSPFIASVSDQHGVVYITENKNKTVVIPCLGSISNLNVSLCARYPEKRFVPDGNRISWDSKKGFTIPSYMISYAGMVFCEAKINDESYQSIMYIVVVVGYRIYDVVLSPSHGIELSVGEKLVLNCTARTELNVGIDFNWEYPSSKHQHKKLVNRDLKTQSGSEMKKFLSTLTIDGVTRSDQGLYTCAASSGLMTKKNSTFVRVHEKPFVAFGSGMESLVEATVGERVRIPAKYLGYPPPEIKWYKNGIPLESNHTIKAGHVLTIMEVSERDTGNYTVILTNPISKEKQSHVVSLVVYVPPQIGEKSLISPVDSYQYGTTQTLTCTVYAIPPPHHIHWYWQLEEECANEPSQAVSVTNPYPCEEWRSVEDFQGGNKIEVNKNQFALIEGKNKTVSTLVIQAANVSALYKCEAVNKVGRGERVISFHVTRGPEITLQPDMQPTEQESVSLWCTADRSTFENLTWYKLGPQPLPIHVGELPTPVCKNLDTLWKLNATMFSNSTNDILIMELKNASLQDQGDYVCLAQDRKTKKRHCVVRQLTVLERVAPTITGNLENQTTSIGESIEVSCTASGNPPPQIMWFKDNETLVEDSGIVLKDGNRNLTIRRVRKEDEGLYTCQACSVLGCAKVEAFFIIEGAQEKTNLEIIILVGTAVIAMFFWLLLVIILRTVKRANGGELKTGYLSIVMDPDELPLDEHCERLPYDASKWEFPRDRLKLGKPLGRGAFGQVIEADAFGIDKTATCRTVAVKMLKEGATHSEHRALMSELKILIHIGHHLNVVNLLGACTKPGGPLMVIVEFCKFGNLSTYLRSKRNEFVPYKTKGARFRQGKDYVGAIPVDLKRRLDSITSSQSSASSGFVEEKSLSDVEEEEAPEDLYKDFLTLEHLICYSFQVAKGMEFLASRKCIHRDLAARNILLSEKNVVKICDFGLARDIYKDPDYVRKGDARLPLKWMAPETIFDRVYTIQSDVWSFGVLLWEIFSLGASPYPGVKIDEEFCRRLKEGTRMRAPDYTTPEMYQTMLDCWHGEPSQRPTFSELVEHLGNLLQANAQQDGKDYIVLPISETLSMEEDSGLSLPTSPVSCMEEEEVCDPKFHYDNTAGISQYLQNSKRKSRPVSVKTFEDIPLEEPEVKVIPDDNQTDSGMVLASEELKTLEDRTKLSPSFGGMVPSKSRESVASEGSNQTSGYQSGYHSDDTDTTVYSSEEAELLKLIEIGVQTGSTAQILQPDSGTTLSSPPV

For `COc1cc(Nc2ncnc(Nc3ccc4c(cnn4Cc4ccccc4)c3)n2)cc(OC)c1OC` [Compound 177], the IC50 at Lck is below 0.827 µM; at Lyn it was below 0.827 µM; on Src it was below 0.827 µM; at Fyn, below 0.827 µM; on Zap-70 it was 4.96 to 7.24 µM; at Itk it was 7.24 to 9.31 µM. Also, the IC50 is below 0.827 µM on EGFR; below 0.827 µM at ErbB2; 0.827 to 4.96 µM at Kdr; 0.827 to 4.96 µM against Flt-1; 0.827 to 4.96 µM on Tek; 0.827 to 4.96 µM at c-Met. The IC50 is 4.96 to 7.24 µM at AKT; 0.827 to 4.96 µM against IGFR-1; below 0.827 µM on PDGFRB; 0.827 to 4.96 µM against Hck-1; below 0.827 µM on ErbB4; below 0.827 µM at Ret-1. Moreover, the IC50 at FGFR1 fell in the range of 4.96 to 7.24 µM.
For the molecule `C=CCNc1ncccc1-c1ncnc(Nc2cc(OC)c(OC)c(OC)c2)n1` [Compound 1076], the IC50 is below 1.01 µM on Lck; above 11.4 µM on Lyn; 1.01 to 6.08 µM against Src; 1.01 to 6.08 µM at Fyn; above 11.4 µM on Zap-70; above 11.4 µM on Itk. Besides, the IC50 on EGFR is above 11.4 µM; at ErbB2, above 11.4 µM; at Kdr, below 1.01 µM; on Flt-1, 1.01 to 6.08 µM; at Tek, above 11.4 µM; on c-Met it was above 11.4 µM. Moreover, the IC50 is above 11.4 µM at AKT; above 11.4 µM on IGFR-1; below 1.01 µM at PDGFRB; above 11.4 µM at Hck-1; above 11.4 µM on ErbB4; below 1.01 µM against Ret-1. In addition, the IC50 at FGFR1 is 1.01 to 6.08 µM.
Regarding `Nc1nc2ccccc2n1-c1ncnc(Nc2ccc(N3CCOCC3)cc2)n1` [Compound 479], the IC50 on Lck is 1.03 to 6.18 µM; against Lyn, 9.01 to 11.6 µM; at Src, above 11.6 µM; at Fyn, above 11.6 µM; at Zap-70, above 11.6 µM; on Itk it was 6.18 to 9.01 µM. The IC50 at EGFR is 9.01 to 11.6 µM; on ErbB2 it was 6.18 to 9.01 µM; at Kdr, 1.03 to 6.18 µM; at Flt-1 it was 1.03 to 6.18 µM; on Tek it was above 11.6 µM; at c-Met it was 6.18 to 9.01 µM. Moreover, the IC50 was above 11.6 µM on AKT; below 1.03 µM at IGFR-1; 6.18 to 9.01 µM on PDGFRB; above 11.6 µM at Hck-1; 9.01 to 11.6 µM at ErbB4; 1.03 to 6.18 µM on Ret-1. On FGFR1, the IC50 was in the range of 1.03 to 6.18 µM.
For `COc1ccc(CNc2nc3ccccc3n2-c2ncnc(Nc3cc(OC)c(OC)c(OC)c3)n2)cc1` [Compound 1037], the IC50 at Lck, on Lyn, against Src, at Fyn, at Zap-70 and at Itk was above 8.76 µM throughout. The IC50 was above 8.76 µM on EGFR; above 8.76 µM at ErbB2; below 0.779 µM at Kdr; 4.67 to 6.82 µM against Flt-1; above 8.76 µM on Tek; above 8.76 µM on c-Met. Moreover, the IC50 on AKT is above 8.76 µM; at IGFR-1 it was above 8.76 µM; on PDGFRB it was above 8.76 µM; on Hck-1, above 8.76 µM; at ErbB4, above 8.76 µM; against Ret-1, 0.779 to 4.67 µM. Besides, on FGFR1, the IC50 fell in the range of 0.779 to 4.67 µM.
